Active and inactive are the calls of the source.
Assays:
[1] = target: DNA damage-inducible transcript 3 protein (Mus musculus, UniProt P35639); type: functional, Cricetulus griseus
[2] = target: X-box-binding protein 1 (Homo sapiens, UniProt P17861); type: functional, Cricetulus griseus;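 further: confirmatory dose-response counter-screen serving a CHOP assay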
[3] = tested on: HEK293; test: inhibition of NOD1-driven NF-kB reporter – cell-based, luminescence, uHTS, primary screen (AID 1578); type: functional; conditions: Homo sapiens
[4] = tested on: HEK293; test: cells; type: functional, cell-based; conditions: Homo sapiens
[5] = target: Nucleotide-binding oligomerization domain-containing protein 2 (Homo sapiens, UniProt Q9HC29); test: inhibition of NOD2-driven NF-kB reporter – cell-based, luminescence, uHTS, HEK293 (AID 1566); type: functional
[6] = tested on: HEK293; test: NOD2 signaling inhibitors in MDP-stimulated cells, cell-based, uHTS, luminescence (AID 2001); type: functional; conditions: Homo sapiens
[7] = tested on: HEK293; test: cells; type: functional, cell-based; conditions: Homo sapiens; remark: listed apart in the source
[8] = target: Protein phosphatase methylesterase 1 (Homo sapiens, UniProt Q9Y570); test: inhibition of PME-1 probe labeling – gel-based ABPP, IC50, set 1, late-stage follow-up (AID 463130); type: functional
[9] = target: Ion channel NompC (Danio rerio, UniProt Q7T1G6); test: Dose response cell-based high-throughput screening assay for agonists of the transient receptor potential channel N1 (TRPN1). [Related pubchem assays (depositor defined):AID1424, AID1448]; type: functional
[10] = target: T1, Mucolipin-3 (Homo sapiens, UniProt Q8TDD5); test: Fluorescence counterscreen assay for […] agonists: dose response cell-based high-throughput screening assay to identify agonists of the transient receptor potential channel ML3 (TRPML3). [Related pubchem assays: 1424, 1448 ]; type: functional
T1 sequence (Q8TDD5 whole entry): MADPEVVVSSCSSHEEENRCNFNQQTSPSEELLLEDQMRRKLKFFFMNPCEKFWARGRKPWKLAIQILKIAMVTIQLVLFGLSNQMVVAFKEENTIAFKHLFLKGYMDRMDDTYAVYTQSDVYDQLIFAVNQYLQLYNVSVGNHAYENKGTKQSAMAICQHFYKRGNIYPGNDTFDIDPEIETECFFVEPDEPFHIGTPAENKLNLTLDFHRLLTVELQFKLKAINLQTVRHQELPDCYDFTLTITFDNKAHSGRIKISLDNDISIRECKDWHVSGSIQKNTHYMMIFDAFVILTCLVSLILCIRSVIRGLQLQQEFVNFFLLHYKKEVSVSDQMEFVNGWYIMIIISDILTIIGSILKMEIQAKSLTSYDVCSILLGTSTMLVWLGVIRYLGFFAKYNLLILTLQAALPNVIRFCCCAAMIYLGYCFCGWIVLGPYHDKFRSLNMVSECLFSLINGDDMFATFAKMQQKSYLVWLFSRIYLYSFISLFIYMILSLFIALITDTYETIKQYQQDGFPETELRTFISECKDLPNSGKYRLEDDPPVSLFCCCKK

[11] = target: Peroxisome proliferator-activated receptor gamma (Homo sapiens, UniProt P37231); test: PPARg transcriptional activation, reporter cells – cell-based, luminescence, assay provider, dose response (AID 504447); type: functional
[12] = target: Peroxisome proliferator-activated receptor alpha (Homo sapiens, UniProt Q07869); test: Late stage assay provider counterscreen for partial agonists of the peroxisome proliferator-activated receptor gamma (PPARg): Luminescence-based cell-based dose response assay for partial agonists of the peroxisome proliferator-activated receptor alpha (PPARA). [Related pubchem assays (depositor defined):AID1051, AID1300, AID1319, AID1679, AID1808, AID504446, AID504447, AID504452, AID504453, AID631]; type: functional
[13] = tested on: BJ; test: BJ-TERT fibroblast viability loss – cell-based, RAS-independent, luminescence, dose response (AID 1933); type: functional; conditions: Homo sapiens
[14] = tested on: BJ; test: cells; type: functional, cell-based; conditions: Homo sapiens
[15] = tested on: BJ; test: BJ-TERT-LT-ST fibroblast viability loss – cell-based, RAS-independent, luminescence, dose response (AID 1935); type: functional; conditions: Homo sapiens;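 further: BJ fibroblasts immortalized with TERT plus LT and ST oncogenes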
[16] = DRD fibroblast viability loss – cell-based, non-viral oncogenic, luminescence, dose response (AID 1934); type: functional; conditions: Homo sapiens
[17] = target: T2, CAAX prenyl protease 2 (Saccharomyces cerevisiae S288c, UniProt Q03530); type: biochemical
T2 sequence (Q03530 whole entry): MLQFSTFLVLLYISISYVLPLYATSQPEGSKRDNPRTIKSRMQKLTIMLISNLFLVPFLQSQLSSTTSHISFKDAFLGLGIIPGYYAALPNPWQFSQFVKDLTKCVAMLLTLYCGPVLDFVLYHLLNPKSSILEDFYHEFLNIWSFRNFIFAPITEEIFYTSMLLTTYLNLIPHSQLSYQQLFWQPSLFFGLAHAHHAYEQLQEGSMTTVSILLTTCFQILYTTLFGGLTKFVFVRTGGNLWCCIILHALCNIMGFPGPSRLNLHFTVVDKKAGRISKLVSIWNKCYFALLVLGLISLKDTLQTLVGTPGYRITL

[18] = toxicity toward cultured mammalian cells – cell-based, plate reader, cherry-pick samples, cytotoxicity control, dose response (AID 504397); type: functional
[19] = target: CAAX prenyl protease 2 (Homo sapiens, UniProt Q9Y256); test: inhibition of Ras-converting CAAX protease Rce1 – biochemical, yeast membranes, quenched-peptide fluorescence, cherry-pick, dose response (AID 588849)
[20] = target: T3, Cannabinoid receptor 2 (Homo sapiens, UniProt P34972); test: SAR analysis of antagonists of the Cannabinoid Receptor 2 using an Image-Based Assay - Set 2. [Related pubchem assays (depositor defined):AID1961, AID1965]; type: functional
[21] = target: G-protein coupled receptor 55 (Homo sapiens, UniProt Q9Y2T6); test: SAR analysis of selective Agonists of GPR55 using an Image-Based Assay - Set 2. [Related pubchem assays (depositor defined):AID1961, AID1965]; type: functional
[22] = target: T3, Cannabinoid receptor 2; test: SAR analysis of agonists of the Cannabinoid Receptor 2 using an Image-Based Assay - Set 2. [Related pubchem assays (depositor defined):AID1961, AID1965]; type: functional
[23] = target: T4, G-protein coupled receptor 35 (Homo sapiens, UniProt Q9HC97); test: SAR analysis of Agonists of the GPR35 Receptor using an Image-Based Assay - Set 3. [Related pubchem assays (depositor defined):AID1961, AID1965]; type: functional
[24] = target: T5, Cannabinoid receptor 1 (Homo sapiens, UniProt P21554); test: SAR analysis of antagonists of the Cannabinoid Receptor 1 using an Image-Based Assay - Set 3. [Related pubchem assays (depositor defined):AID1961, AID1965]; type: functional
[25] = target: T5, Cannabinoid receptor 1; test: SAR analysis of agonists of the Cannabinoid Receptor 1 using an Image-Based Assay - Set 3. [Related pubchem assays (depositor defined):AID1961, AID1965]; type: functional
[26] = target: T4, G-protein coupled receptor 35; test: SAR analysis of Antagonists of the GPR35 Receptor using an Image-Based Assay - Set 4. [Related pubchem assays (depositor defined):[…]]; type: functional
[27] = target: Mu-type opioid receptor (Homo sapiens, UniProt P35372); test: SAR Analysis of Antagonists of the MOR Receptor using an Image-Based Assay - Set 3. [Related pubchem assays (depositor defined):AID1777, AID1785, AID1786, AID1966, AID2133, AID2136, AID2284, AID2285, AID2420]; type: functional
[28] = target: Delta-type opioid receptor (Homo sapiens, UniProt P41143); test: SAR Analysis of Antagonists of the DOR Receptor using an Image-Based Assay - Set 3. [Related pubchem assays (depositor defined):AID1777, AID1785]; type: functional;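 further: U2OS cells expressing DOR1 and beta-arrestin GFP stimulated with 100 nM SNC80; imaging of GFP-tagged beta-arrestin moving into spots after receptor activation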
[29] = target: T6, Kappa-type opioid receptor (Homo sapiens, UniProt P41145); test: SAR analysis of small molecule antagonists of the kappa opioid receptor via a luminescent beta-arrestin assay - Set 3. [Related pubchem assays (depositor defined):AID1777, AID1778, AID1785, AID1786, AID1966, AID2133, AID2136, AID2285, AID2495]; type: functional
[30] = target: T6, Kappa-type opioid receptor; test: SAR analysis of Antagonists of the Kappa Opioid Receptor (KOR) using an Image-Based Assay - Set 3. [Related pubchem assays (depositor defined):AID1777, AID1785]; type: functional
[31] = target: Glucose-6-phosphate 1-dehydrogenase (Homo sapiens, UniProt P11413); test: inhibition of Homo sapiens G6PD, dose series – biochemical, fluorescence, selectivity assay for P. falciparum G6PD inhibitor project, dose response (AID 504792); type: functional
[32] = target: C-C chemokine receptor type 6 (Homo sapiens, UniProt P51684); test: antagonism of CCR6 beta-arrestin recruitment – cell-based, luminescent beta-arrestin readout, dose response (AID 504728); type: functional
[33] = target: T7, Hexokinase HKDC1 (Homo sapiens, UniProt Q2TB90); test: activation of HKDC1 glucose phosphorylation – biochemical, W721R variant, dose response (AID 504730); type: functional
T7 sequence (Q2TB90 whole entry): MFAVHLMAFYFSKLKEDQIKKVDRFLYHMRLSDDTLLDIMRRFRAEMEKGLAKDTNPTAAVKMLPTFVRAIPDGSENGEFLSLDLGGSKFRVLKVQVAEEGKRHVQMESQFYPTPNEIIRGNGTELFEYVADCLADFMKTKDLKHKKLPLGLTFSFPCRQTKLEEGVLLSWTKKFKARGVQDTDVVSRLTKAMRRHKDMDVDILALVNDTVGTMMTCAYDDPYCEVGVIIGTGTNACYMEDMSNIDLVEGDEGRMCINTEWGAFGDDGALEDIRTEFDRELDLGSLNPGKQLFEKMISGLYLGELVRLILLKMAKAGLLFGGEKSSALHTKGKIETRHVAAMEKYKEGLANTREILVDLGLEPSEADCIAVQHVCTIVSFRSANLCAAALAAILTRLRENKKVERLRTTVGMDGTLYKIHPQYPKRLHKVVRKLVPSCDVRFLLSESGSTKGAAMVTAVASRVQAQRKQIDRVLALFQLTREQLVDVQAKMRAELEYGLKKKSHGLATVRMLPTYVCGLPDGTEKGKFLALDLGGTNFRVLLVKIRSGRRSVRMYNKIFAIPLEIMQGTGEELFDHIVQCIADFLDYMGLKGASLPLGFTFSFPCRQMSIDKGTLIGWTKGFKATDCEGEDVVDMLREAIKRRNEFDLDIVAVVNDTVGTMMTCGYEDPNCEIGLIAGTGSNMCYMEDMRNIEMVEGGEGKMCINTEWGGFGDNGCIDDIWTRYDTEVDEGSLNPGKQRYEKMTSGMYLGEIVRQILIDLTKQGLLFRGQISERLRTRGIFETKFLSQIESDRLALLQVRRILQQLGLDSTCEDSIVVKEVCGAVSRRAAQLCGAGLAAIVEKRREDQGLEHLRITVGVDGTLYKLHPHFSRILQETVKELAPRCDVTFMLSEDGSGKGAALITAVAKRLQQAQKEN

[34] = target: Beta-galactosidase (Escherichia coli, UniProt Q8VNN2); test: detection-enzyme interference by beta-gal modulators – biochemical, E. coli enzyme, set 3, artefact control for CCR6 antagonist project, dose response (AID 504712); type: functional
[35] = target: Hexokinase-1 (Homo sapiens, UniProt P19367); test: HK1 enzyme activation by HKDC1 hits – biochemical, selectivity assay for HKDC1 activator project, dose response (AID 504762); type: functional
[36] = target: Heat shock protein HSP 90-alpha (Homo sapiens, UniProt P07900); type: functional, organism-based
[37] = Fluorescence-based cell-based high throughput dose response assay for inhibitors of the interaction of nucleotide-binding oligomerization domain containing 2 (NOD2) and the receptor-interacting serine-threonine kinase 2 (RIPK2).; type: functional; conditions: Homo sapiens
[38] = target: Beta Lactamase (Pseudomonas aeruginosa, UniProt Q932Y6); test: BLA reporter interference, concentration series – BLA reporter cells, FRET fluorescence, artefact control for NOD2-RIPK2 interaction inhibitor project, dose response (AID 651552); type: functional, cell-based

T3 sequence (P34972 whole entry): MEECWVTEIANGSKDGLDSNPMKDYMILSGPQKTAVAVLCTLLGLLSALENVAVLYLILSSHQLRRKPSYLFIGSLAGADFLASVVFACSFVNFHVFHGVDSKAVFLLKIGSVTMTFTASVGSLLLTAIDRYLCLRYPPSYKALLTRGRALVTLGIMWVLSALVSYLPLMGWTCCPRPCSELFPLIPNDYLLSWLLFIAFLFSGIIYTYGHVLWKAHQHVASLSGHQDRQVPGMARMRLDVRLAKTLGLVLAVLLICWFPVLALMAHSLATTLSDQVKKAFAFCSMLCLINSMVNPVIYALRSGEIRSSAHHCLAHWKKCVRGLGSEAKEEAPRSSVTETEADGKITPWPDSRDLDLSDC
T5 sequence (P21554 whole entry): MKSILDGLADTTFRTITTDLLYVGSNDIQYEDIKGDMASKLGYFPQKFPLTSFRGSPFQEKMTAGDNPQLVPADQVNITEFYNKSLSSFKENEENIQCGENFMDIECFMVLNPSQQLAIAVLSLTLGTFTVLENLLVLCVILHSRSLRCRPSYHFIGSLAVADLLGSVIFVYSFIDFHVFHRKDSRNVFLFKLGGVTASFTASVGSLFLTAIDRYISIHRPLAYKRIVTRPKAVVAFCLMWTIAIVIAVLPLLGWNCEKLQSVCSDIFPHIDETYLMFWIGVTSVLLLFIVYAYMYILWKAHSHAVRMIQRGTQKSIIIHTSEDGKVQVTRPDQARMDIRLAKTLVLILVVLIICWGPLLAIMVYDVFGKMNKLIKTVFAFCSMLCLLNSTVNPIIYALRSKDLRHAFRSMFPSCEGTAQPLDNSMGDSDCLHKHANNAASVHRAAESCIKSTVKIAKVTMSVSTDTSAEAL
T4 sequence (Q9HC97 whole entry): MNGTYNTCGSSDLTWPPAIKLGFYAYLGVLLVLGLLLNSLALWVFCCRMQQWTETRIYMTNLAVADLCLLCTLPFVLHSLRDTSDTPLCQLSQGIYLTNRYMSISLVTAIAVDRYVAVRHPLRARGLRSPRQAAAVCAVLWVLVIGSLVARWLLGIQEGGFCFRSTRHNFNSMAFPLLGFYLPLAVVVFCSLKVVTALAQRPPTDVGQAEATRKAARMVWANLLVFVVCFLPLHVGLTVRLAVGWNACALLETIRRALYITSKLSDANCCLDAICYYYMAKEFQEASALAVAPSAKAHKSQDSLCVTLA
T6 sequence (P41145 whole entry): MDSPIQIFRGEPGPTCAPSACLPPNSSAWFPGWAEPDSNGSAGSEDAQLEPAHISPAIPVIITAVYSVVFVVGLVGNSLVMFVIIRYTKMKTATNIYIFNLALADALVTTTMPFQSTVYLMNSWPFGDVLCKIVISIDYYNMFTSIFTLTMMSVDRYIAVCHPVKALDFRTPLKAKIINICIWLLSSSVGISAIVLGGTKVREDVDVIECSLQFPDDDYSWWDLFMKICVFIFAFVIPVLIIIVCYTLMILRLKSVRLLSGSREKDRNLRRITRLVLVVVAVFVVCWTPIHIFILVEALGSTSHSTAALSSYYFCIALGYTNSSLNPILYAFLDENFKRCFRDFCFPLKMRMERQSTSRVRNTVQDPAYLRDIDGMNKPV
Chain of Peroxisome proliferator-activated receptor alpha (Q07869 whole entry): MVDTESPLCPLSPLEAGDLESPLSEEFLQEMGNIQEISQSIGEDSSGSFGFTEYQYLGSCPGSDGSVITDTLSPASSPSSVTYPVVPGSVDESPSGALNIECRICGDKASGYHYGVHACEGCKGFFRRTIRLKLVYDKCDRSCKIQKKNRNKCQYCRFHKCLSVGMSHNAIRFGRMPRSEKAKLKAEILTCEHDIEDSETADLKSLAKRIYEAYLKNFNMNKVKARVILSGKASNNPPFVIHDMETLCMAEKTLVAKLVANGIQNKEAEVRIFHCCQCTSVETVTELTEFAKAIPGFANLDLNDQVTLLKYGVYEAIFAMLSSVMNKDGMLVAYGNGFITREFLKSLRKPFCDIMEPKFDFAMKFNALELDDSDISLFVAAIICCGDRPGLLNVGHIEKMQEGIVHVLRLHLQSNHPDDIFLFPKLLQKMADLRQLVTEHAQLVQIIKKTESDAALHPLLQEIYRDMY
Chain of Ion channel NompC (Q7T1G6 whole entry): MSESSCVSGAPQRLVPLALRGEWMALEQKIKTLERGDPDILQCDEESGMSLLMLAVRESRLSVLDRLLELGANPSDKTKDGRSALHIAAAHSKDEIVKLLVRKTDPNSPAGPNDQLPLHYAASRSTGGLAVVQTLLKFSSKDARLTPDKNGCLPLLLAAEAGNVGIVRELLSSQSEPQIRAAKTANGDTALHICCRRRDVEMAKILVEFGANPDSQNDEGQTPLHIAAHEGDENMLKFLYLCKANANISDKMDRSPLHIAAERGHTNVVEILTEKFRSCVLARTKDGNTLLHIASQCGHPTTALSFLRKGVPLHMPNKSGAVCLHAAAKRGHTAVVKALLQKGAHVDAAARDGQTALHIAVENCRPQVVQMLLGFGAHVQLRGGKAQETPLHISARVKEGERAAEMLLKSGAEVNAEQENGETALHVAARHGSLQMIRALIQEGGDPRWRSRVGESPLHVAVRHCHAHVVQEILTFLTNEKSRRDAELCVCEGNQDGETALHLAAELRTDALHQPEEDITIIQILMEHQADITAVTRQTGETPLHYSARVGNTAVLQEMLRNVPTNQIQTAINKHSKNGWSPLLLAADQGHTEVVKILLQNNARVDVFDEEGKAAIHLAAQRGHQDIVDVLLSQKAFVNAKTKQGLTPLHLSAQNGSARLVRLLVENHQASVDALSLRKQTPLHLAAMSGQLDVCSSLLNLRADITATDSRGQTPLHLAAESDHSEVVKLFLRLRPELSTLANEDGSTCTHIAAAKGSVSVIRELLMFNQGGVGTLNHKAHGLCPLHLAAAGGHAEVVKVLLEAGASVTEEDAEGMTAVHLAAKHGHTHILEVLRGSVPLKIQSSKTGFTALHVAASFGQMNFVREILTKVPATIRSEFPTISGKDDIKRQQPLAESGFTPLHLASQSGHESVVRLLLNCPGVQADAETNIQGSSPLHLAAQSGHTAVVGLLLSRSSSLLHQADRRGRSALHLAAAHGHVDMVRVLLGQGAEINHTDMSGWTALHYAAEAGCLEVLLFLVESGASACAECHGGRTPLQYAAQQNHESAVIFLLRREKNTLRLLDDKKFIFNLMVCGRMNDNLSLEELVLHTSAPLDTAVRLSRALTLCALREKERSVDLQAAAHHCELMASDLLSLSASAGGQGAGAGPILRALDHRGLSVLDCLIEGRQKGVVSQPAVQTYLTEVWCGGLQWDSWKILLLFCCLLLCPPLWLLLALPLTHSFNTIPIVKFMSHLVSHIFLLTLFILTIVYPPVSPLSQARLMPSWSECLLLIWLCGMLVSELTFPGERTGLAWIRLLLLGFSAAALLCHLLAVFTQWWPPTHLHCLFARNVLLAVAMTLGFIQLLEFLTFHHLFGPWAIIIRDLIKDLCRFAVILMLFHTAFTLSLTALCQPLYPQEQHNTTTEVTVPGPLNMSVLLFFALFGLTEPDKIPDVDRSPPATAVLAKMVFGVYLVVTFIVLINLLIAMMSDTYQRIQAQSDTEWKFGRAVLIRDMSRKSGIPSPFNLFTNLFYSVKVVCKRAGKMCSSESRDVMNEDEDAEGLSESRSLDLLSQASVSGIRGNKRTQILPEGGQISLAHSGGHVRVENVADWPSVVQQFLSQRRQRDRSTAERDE
Chain of G-protein coupled receptor 55 (Q9Y2T6 whole entry): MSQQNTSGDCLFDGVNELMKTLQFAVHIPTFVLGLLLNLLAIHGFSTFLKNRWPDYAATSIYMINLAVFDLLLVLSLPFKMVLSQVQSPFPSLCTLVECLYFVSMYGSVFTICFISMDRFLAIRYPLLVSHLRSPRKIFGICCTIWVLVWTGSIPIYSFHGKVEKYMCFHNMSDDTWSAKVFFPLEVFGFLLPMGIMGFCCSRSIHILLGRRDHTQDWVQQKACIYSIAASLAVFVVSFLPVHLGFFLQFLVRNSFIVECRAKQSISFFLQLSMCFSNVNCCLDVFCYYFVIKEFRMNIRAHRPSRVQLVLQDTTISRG
Chain of C-C chemokine receptor type 6 (P51684 whole entry): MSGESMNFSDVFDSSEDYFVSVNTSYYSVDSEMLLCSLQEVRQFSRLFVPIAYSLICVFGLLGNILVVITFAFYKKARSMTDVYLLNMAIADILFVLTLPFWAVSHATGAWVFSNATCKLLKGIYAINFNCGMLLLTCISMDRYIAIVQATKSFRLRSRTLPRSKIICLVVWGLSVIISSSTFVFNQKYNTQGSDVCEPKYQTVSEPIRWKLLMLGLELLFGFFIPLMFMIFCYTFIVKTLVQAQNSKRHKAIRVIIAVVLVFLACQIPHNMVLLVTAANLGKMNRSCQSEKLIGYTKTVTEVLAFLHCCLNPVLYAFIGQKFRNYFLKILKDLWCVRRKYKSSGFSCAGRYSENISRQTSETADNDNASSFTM
Chain of X-box-binding protein 1 (P17861 whole entry): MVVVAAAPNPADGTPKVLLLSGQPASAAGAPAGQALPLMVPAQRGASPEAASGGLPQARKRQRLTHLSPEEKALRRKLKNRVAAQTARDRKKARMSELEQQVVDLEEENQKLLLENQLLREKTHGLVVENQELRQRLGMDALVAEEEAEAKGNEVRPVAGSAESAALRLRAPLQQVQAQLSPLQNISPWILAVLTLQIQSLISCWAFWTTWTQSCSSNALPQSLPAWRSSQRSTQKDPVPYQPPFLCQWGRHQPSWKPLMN
Chain of Protein phosphatase methylesterase 1 (Q9Y570 whole entry): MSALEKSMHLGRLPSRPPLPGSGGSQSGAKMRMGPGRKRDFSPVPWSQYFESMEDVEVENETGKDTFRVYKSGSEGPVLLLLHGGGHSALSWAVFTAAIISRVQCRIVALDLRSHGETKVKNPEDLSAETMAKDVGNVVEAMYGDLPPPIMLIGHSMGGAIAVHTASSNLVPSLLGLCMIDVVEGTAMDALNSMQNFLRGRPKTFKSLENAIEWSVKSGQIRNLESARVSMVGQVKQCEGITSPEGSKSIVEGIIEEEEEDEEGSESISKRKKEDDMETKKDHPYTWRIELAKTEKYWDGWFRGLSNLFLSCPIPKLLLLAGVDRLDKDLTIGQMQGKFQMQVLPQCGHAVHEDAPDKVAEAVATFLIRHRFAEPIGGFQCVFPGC

SMILES: O=C(Nc1ccccc1O)c1c(O)nc2c(c1O)CCCC2
- Absolute IC50 (CHOP) [1]: 10 µM
- Absolute IC50 (XBP1) [2]: 10 µM

SMILES: Cc1c(/C=N/NC(=O)c2ccccc2O)c2ccccn2c1C(=O)c1ccc(F)cc1
- EC50 [3]: 10.3 µM (active)
- IC50 [4]: 10.9 µM (active)
- EC50 [5]: 6.46 µM (active)
- IC50 [6]: 6.49 µM (active)
- IC50 [7]: 11.5 µM (active)

SMILES: COC(=O)N1C(=O)[C@](c2ccsc2)(C(C)C)N1C(=O)OC
- IC50 [8]: 10.7 µM (inactive)

SMILES: O=C(Nc1ccccc1)Nc1ccc2snnc2c1
- EC50 [9]: > 29.9 µM (inactive)
- EC50 [10]: > 29.9 µM (not active)

SMILES: CCOc1cccc(/C=C2/SC(=S)N(CCC(=O)O)C2=O)c1
- EC50 [11]: 2.6 µM (active)
- EC50 [12]: > 3 µM (inactive)

SMILES: O=C1C(=O)N(C/C=C/c2ccccc2)c2ccccc21
- EC50 [13]: 8.22 µM (inconclusive)
- EC50 [14]: > 150 µM (not active)
- EC50 [15]: 14.9 µM (active)
- EC50 [16]: 39.8 µM (active)
- AC50 [17]: 1.92 µM (active)
- AC50 [18]: 64.6 µM (active)
- AC50 [19]: 5.17 µM (active)

SMILES: CCN(CC)S(=O)(=O)c1ccc(N2CCCCC2)c(C(=O)N2CCN(c3ccccc3)CC2)c1
- IC50 [20]: > 32 µM (inactive)
- EC50 [21]: > 32 µM (inactive)
- EC50 [22]: > 32 µM (inactive)
- EC50 [23]: > 32 µM (inactive)
- IC50 [24]: 9.36 µM (active)
- EC50 [25]: > 32 µM (inactive)
- IC50 [26]: > 32 µM (inactive)

SMILES: Cc1ccc(Cl)cc1N1CCN(CCNC(=O)Cn2c(=O)c3cccn3c3cccnc32)CC1
- IC50 [27]: 3.98 µM (active)
- IC50 [28]: > 32 µM (inactive)
- IC50 [29]: > 20 µM (inactive)
- IC50 [30]: > 32 µM (inactive)

SMILES: COC(=O)C1=C(C(=O)OC)SC2(S1)C(C(=O)OC)=C(C(=O)OC)Sc1c2ssc1=O
- IC50 [31]: > 80 µM (inactive)
- IC50 [32]: 28.5 µM (inactive)
- EC50 [33]: 33.1 µM (inactive)
- IC50 [34]: > 66.6 µM (inactive)
- EC50 [35]: 49.6 µM (inactive)
- AC50 [36]: 4.21 µM (active)
- IC50 [37]: 0.727 µM (active)
- IC50 [38]: 14.1 µM (inactive)

Reference: ChEMBL document CHEMBL1201862, “PubChem BioAssay data set” (2004)
